From patent US11065230B2, “Methods and pharmaceutical compositions for the treatment of systemic mastocytosis” (INSERM (INSTITUT NATIONAL DE LA SANTE ET DE LA RECHERCHE …, priority 2016, dated 2021)

How the values were obtained:
[1] = test system: HMC1.2 MC line (G560V and D816V KIT mutation); assay: Cell death and proliferation in HMC1.2 mast cell line; type: cell-based, human; settings: KPT at 100 nM, 500 nM, 1000 nM vs DMSO; for cell proliferation (counting after trypan blue staining): 24, 48 and 72 hours; for cell death (percentage of dead cells, trypan blue staining): 72 hours
Method: (§1) FIG. 2. […] Upper panel: Cell death data are presented in histograms as mean percentage of dead cells ±SD assessed by counting after blue trypan staining after 72 hours of treatment with KPT at 100 nM, 500 nM, 1000 nM or DMSO (control) in HMC1.1 and HMC1.2 MC lines, n=3 independent experiments. P values are determined by ANOVA Tukeys multiple comparison test. Lower panel: Proliferation curves analysis ±SD of HMC1.1 and HMC1.2 MC lines assessed by blue trypan staining at 24, 48 and 72 hours of treatment with KPT100 nM, 500 nM, KPT1000 nM, or DMSO (control), n=3 independent experiments. P values are determined by one-way ANOVA test, *P<0.05, **P<0,01, ns=not significant. Here we show the effect of KPT-251 treatment on two different human mast cell (MC) lines : ROSA and HMC1 cell lines and on bone marrow cells depleted with erythrocytes, from a patient with aggressive mastocytosis with D816V mutation. ROSA cell lines include a SCF-dependent MC line without KIT mutation (ROSA WT) and a factor-independent MC line with KIT mutation D816V (ROSA D816V). HMC1 factor-independent MC lines include HMC1.1 with […] KIT mutation and HMC1.2 with […] and D816V KIT mutation. […] Human MC lines ROSA WT and ROSA D816V were treated for 72 hours with KPT-251 at 100 nM, 1000 nM, or with DMSO (control) and HMC1.1 and HMC1.2 were treated for 72 hours with KPT-251 at 100 nM, 500 nM, 1000 nM, or with DMSO (control). WT ROSA cell lines were cultured in the presence of human SCF at 100 ng/mL. Cells were plated at 0,5 million/mL at day 0. Cell death percentage was assessed by counting after trypan blue staining or Annexin V labelling analysed by flow cytometry. Proliferation was assessed by counting after trypan blue staining. Bone marrow cells from patient were depleted with erythrocytes and then treated for 7 days with KPT at 100 nm, 500 nM, 1000 nm, or with DMSO (control) in culture media supplemented with SCF at 80 ng/mL and IL6 at 50 ng/mL.

[2] = test system: HMC1.1 MC line (G560V KIT mutation); assay: Cell death and proliferation in HMC1.1 mast cell line; type: cell-based, human; settings: KPT at 100 nM, 500 nM, 1000 nM vs DMSO; for cell proliferation (counting after trypan blue staining): 24, 48 and 72 hours; for cell death (percentage of dead cells, trypan blue staining): 72 hours
Method: as §1

[3] = test system: bone marrow cells from a patient with aggressive mastocytosis with D816V mutation; assay: Cell death, proliferation and histamine secretion in patient bone marrow cells; type: cell-based, human; settings: 7 days, KPT at 100 nM, 500 nM, 1000 nM vs DMSO
Method: FIG. 3. […] Upper panel: Cell death data presented as percentage of dead cells, and proliferation data, are presented in histograms. Cell death and proliferation were assessed by counting after blue trypan staining, after 7 days of treatment with KPT at 100 nM, 500 nM, 1000 nM or DMSO (control), n=1. Lower panel Histamin concentration in ng/mL was quantified in cell culture media of bone marrow cells from the patient, after 7 days of treatment with KPT at 100 nM, 500 nM, 1000 nM or DMSO (control), n=1
(§2) Here we show the effect of KPT-251 treatment on two different human mast cell (MC) lines : ROSA and HMC1 cell lines and on bone marrow cells depleted with erythrocytes, from a patient with aggressive mastocytosis with D816V mutation. ROSA cell lines include a SCF-dependent MC line without KIT mutation (ROSA WT) and a factor-independent MC line with KIT mutation D816V (ROSA D816V). HMC1 factor-independent MC lines include HMC1.1 with G560V KIT mutation and HMC1.2 with G560V and D816V KIT mutation.
(§3) Human MC lines ROSA WT and ROSA D816V were treated for 72 hours with KPT-251 at 100 nM, 1000 nM, or with DMSO (control) and HMC1.1 and HMC1.2 were treated for 72 hours with KPT-251 at 100 nM, 500 nM, 1000 nM, or with DMSO (control). WT ROSA cell lines were cultured in the presence of human SCF at 100 ng/mL. Cells were plated at 0,5 million/mL at day 0. Cell death percentage was assessed by counting after trypan blue staining or Annexin V labelling analysed by flow cytometry. Proliferation was assessed by counting after trypan blue staining. Bone marrow cells from patient were depleted with erythrocytes and then treated for 7 days with KPT at 100 nm, 500 nM, 1000 nm, or with DMSO (control) in culture media supplemented with SCF at 80 ng/mL and IL6 at 50 ng/mL.

[4] = test system: ROSA D816V MC line (KIT mutation D816V); assay: Cell death and proliferation in ROSA D816V mast cell line; type: cell-based, human; settings: KPT at 100 nM, 1000 nM vs DMSO; for cell proliferation (counting after trypan blue staining): 24, 48 and 72 hours; for cell death (percentage of annexin positive cells): 72 hours
Method: (§4) FIG. 1. […] Upper panel: Cell death data are presented in histograms as mean percentage of annexin positive cells ±SD after 72 hours of treatment with KPT at 100 nM, 1000 nM or with DMSO (control) in ROSA WT and ROSA D816V MC lines, n=6 independent experiments. P values are determined by ANOVA Tukeys multiple comparison test. Lower panel: Proliferation curves analysis ±SD of ROSA WT and ROSA D816V MC lines assessed by counting after blue trypan staining at 24, 48 and 72 hours of treatment with KPT at 100 nM, 1000 nM, or with DMSO (control), n=3 independent experiments. P values are determined by one-way ANOVA test, *P<0.05, ***P<0,001, ****P<0,0001, ns=not significant.
as §2, §3

[5] = test system: normal hematopoietic stem and progenitor cells; settings: cited from earlier work
[6] = test system: non-cancerous hematopoietic cells; settings: both in vitro and in vivo; cited from earlier work
[7] = test system: ROSA WT MC line (SCF-dependent, without KIT mutation); assay: Cell death and proliferation in ROSA WT mast cell line; type: cell-based, human; settings: KPT at 100 nM, 1000 nM vs DMSO; for cell proliferation (counting after trypan blue staining): 24, 48 and 72 hours; for cell death (percentage of annexin positive cells): 72 hours, SCF 100 ng/mL
Method: as §4, §2, §3

[8] = test system: patients with relapsed or refractory AML; settings: alone or in combination with conventional therapies; cited from earlier work
[9] = compared to first generation KPT; cited from earlier work
[10] = test system: AML blasts and leukemia-initiating cells; settings: cited from earlier work

FC(F)(F)c1cc(-c2ncn(/C=C\c3nnco3)n2)cc(C(F)(F)F)c1 [KPT-251, (Z)-2-(2-(3-(3,5-bis(trifluoromethyl)phenyl)-1H-1,2,4-triazol-1-yl)vinyl)-1,3,4-oxadiazol]
cell proliferation (counting after trypan blue staining) [1]: decreases proliferation
cell proliferation (counting after trypan blue staining) ([1]; listed as KPT 251): significatively decreases proliferation in a dose dependent manner, more importantly in HMC1.2 cell line
cell death (percentage of dead cells, trypan blue staining) [1]: no effect on cell death
cell death (percentage of dead cells, trypan blue staining) ([1]; listed as KPT 251): weak effect on cell death
cell proliferation (counting after trypan blue staining) [2]: decreases proliferation
cell proliferation (counting after trypan blue staining) ([2]; listed as KPT 251): significatively decreases proliferation in a dose dependent manner
cell death (percentage of dead cells, trypan blue staining) [2]: no effect on cell death
cell death (percentage of dead cells, trypan blue staining) ([2]; listed as KPT 251): weak effect on cell death
cell death (percentage of dead cells, trypan blue staining) ([3]; n=1): induces cell death
cell proliferation (counting after trypan blue staining) ([3]; n=1): decreases proliferation
histamine concentration in cell culture media ([3]; n=1): decreases the secretion of histamin in culture media
cell death (percentage of dead cells, trypan blue staining) ([3]; n=1, listed as KPT): increase in cell death
cell proliferation (counting after trypan blue staining) ([3]; n=1, listed as KPT): decrease in proliferation
histamine concentration in cell culture media ([3]; n=1, listed as KPT): decrease in media concentration of histamine
cell proliferation (counting after trypan blue staining) [4]: decreases proliferation
cell proliferation (counting after trypan blue staining) ([4]; listed as KPT 251): decrease in cell proliferation
cell death (percentage of annexin positive cells) [4]: induces cell death
cell death (percentage of annexin positive cells) ([4]; listed as KPT 251): significant dose dependent increase in cell death
effect on normal hematopoietic stem and progenitor cells [5]: no significant effect
toxicity in non-cancerous hematopoietic cells [6]: minimal toxicity
cell proliferation (counting after trypan blue staining) [7]: decreases proliferation
cell proliferation (counting after trypan blue staining) ([7]; listed as KPT 251): decrease in cell proliferation
cell death (percentage of annexin positive cells) [7]: induces cell death
cell death (percentage of annexin positive cells) ([7]; listed as KPT 251): significant dose dependent increase in cell death

O=C(/C=C\n1cnc(-c2cc(C(F)(F)F)cc(C(F)(F)F)c2)n1)NNc1cnccn1 [KPT-330]
induction of remission [8]: active in inducing remission

NC(=O)/C(=C/n1cnc(-c2cc(C(F)(F)F)cc(C(F)(F)F)c2)n1)c1cncnc1 [KPT-8602]
brain penetration [9]: reduced brain penetration
tolerance [9]: better tolerance
activity against AML blasts and leukemia-initiating cells [10]: effective activity
